Measured values as given in patent US6576627B1, “Phosphonic acid derivatives having carboxypeptidase b inhibitory activity” (Meiji Seika Kaisha Ltd., priority 1999, dated 2003).

target: T1, carboxypeptidase B (Homo sapiens, UniProt Q96IY4); experiment: Inhibitory activity against carboxypeptidase B (activated pro-CPB partially purified from human plasma, Hip-Arg substrate); type: biochemical; conditions: tested substance 500 nM, 25° C. for 60 minutes, absorbance at 405 nm
T1 construct: from tissue; host or cells: human plasma (citrated)
T1 sequence (Q96IY4 115-423): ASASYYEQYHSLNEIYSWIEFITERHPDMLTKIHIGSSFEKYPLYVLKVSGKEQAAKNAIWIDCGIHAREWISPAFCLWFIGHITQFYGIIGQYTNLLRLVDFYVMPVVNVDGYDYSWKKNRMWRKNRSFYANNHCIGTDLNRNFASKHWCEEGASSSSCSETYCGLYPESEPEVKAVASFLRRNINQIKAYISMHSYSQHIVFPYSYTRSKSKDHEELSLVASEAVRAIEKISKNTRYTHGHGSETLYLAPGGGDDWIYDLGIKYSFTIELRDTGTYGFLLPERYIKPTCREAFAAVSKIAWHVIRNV
Experimental: Inhibitory activity of the compounds of the present invention against carboxypeptidase B was measured as follows according to the method described in Thromb. Haemost. 371(1998).
(a) Partial Purification of Carboxypeptidase B Precursor (pro-CPB) from Human Plasma
Human plasma collected over citric acid was added with 80 mM barium chloride and treated at 4° C. for 30 minutes. The supernatant obtained by centrifugation at 10,000 rpm for 20 minutes was dialyzed against 20 mM HEPES buffer containing 0.15 M sodium chloride (pH 7.4). Furthermore, protein in the fractions obtained with 30% to 80% ammonium sulfate were partially purified by chromatography using a Q-Sepharose column (elution with 50 mM tris-HCl buffer (pH 7.4) gradually containing sodium chloride to 0.5 M).
(b) Activation of pro-CPB
pro-CPB (20 μl) was added with 20 μl of a thrombomodulin solution (Thrombomodulin derived from rabbit lung, American Diagnostia Inc., Product No. #237, dissolved at concentration of 300 ng/ml in buffer A as 50 mM tris-HCl buffer (pH 7.4) supplemented with 0.1% Lubrol, 0.1% BSA and 0.15 M sodium chloride), and treated at 25° C. for 3 minutes. Then, the mixture was added with 20 μl of thrombin (Thrombin derived from human plasma, Sigma, Product No. T8885, dissolved at concentration of 3 u/ml in buffer B as 50 mM Tris-HCl buffer (pH 7.4) supplemented with 0.1% BSA, 0.15 M NaCl and 10 mM calcium chloride) and further treated at 25° C. for 30 minutes for activation(*1).
(c) Measurement of CPB Inhibitory Activity
By using a microplate, 4 μl of the sample was added with a mixed solution of 41 μl of buffer C (0.1 M tris-HCl buffer (pH 7.6)) and 25 μl of a substrate solution (Hip-Arg, Sigma, H2508, dissolved in buffer C at concentration of 4 mM.), and further added with 10 μl of the activated CPB solution (*1), and then the mixture was well mixed and allowed to react at 25° C. for 60 minutes. Then, 100 μl of 0.2 M PIPES buffer (pH 7.5) containing 12.5% Tween was added to the mixture to stop the reaction. After 5 minutes, the mixture was added with 100 μl of a coloring solution (2-methoxyethanol containing 1% cyanuryl chloride) and allowed to stand at room temperature for 15 minutes, and then absorbance was measured at 405 nm by using a microplate reader (Bio Rad Model 3550).
Inhibitory activity against carboxypeptidase B was calculated by using the following equation as an inhibitory rate, wherein A represents absorbance in the absence of a tested substance; B represents absorbance in the presence of a tested substance (500 nM); A′ and B′ represent the aforementioned absorbances obtained by using non-activated enzyme without and with the tested substance, respectively.
Inhibitory rate (%)=[1−{(B-B′)/(A-A′)}]×100
The results of the carboxypeptidase B inhibitory rates are shown in Table 1, which were calculated by using the above equation and the results of the measurements in the above experiments for the compounds of the present invention.

| SMILES | Carboxypeptidase B inhibitory rates by tested substance at 500 nM [%] |
| --- | --- |
| CC(C)C(NC(=O)CCc1ccccc1)P(=O)(O)OC(CCCCN)C(=O)O [Example 2, (S)-6-Amino-2-((2-methyl-1-(3-phenylpropanoylamino)propyl)(hydroxyphosphinoyl)oxy)hexanoic acid] | >90 |

same assay, conditions: tested substance 500 nM, 25° C. for 60 minutes, absorbance at 405 nm, read-out: Carboxypeptidase B inhibitory rates by tested substance at 500 nM

| SMILES | inhibition at 0.5 µM [%] |
| --- | --- |
| CC(NC(=O)CCc1ccccc1)P(=O)(O)OC(CCCCN)C(=O)O [Example 4, (S)-6-Amino-2-((1-(3-phenylpropanoylamino)ethyl)(hydroxyphosphinoyl)oxy)hexanoic acid] | > 90 |
| NCCCCC(OP(=O)(O)C(NC(=O)CCc1ccccc1)C1CCCCC1)C(=O)O [Example 9, (S)-6-Amino-2-((1-cyclohexyl-1-(3-phenylpropanoylamino)methyl)(hydroxyphosphinoyl)oxy)hexanoic acid] | > 90 |
| CC(C)C(NC(=O)CCc1ccccc1)P(=O)(O)OC(CCCCN)C(=O)O [Example 19, (S)-6-Amino-2-((2-methyl-(1R)-(3-phenylpropanoylamino)propyl)(hydroxyphosphinoyl)oxy)hexanoic acid] | > 90 |
| NCCCC[C@H](OP(=O)(O)CNC(=O)CCc1ccccc1)C(=O)O [Example 5, (S)-6-Amino-2-(((3-phenylpropanoylamino)methyl)(hydroxyphosphinoyl)oxy)hexanoic acid] | 30 |
| CC1CCC(C(NC(=O)CCc2ccccc2)P(=O)(O)OC(CCCCN)C(=O)O)CC1 [Example 41, (S)-6-Amino-2-((1-(4-methylcyclohexyl)-1-(3-phenylpropanoylamino)methyl)(hydroxyphosphinoyl)oxy)hexanoic acid] | > 90 |
| CC(C)(C)CC(NC(=O)CCc1ccccc1)P(=O)(O)OC(CCCCN)C(=O)O [Example 23, (S)-6-Amino-2-((3,3-dimethyl-1-(3-phenylpropanoylamino)butyl)(hydroxyphosphinoyl)oxy)hexanoic acid] | 50 |
| NCCCCC(OP(=O)(O)C(NC(=O)CCc1ccccc1)C1CCNCC1)C(=O)O [Example 39, (S)-6-Amino-2-((1-(piperidin-4-yl)-1-(3-phenylpropanoylamino)methyl)(hydroxyphosphinoyl)oxy)hexanoic acid] | > 90 |
| CCC(CC)C(NC(=O)CCc1ccccc1)P(=O)(O)OC(CCCCN)C(=O)O [Example 3, (S)-6-Amino-2-((2-ethyl-1-(3-phenylpropanoylamino)butyl)(hydroxyphosphinoyl)oxy)hexanoic acid] | > 90 |
| CCCC(NC(=O)CCc1ccccc1)P(=O)(O)OC(CCCCN)C(=O)O [Example 8, (S)-6-Amino-2-((1-(3-phenylpropanoylamino)butyl)(hydroxyphosphinoyl)oxy)hexanoic acid] | > 90 |
| NCCCCC(OP(=O)(O)C(CCC(F)(F)F)NC(=O)CCc1ccccc1)C(=O)O [Example 25, (S)-6-Amino-2-((4,4,4-trifluoro-1-(3-phenylpropanoylamino)butyl)(hydroxyphosphinoyl)oxy)hexanoic acid] | 80 |
| CC(C)CC(NC(=O)CCc1ccccc1)P(=O)(O)OC(CCCCN)C(=O)O [Example 12, (S)-6-Amino-2-((3-methyl-1-(3-phenylpropanoylamino)butyl)(hydroxyphosphinoyl)oxy)hexanoic acid] | > 90 |
| NCCCCC(OP(=O)(O)C(NC(=O)CCc1ccccc1)c1ccccc1)C(=O)O [Example 34, (S)-6-Amino-2-((1-phenyl-1-(3-phenylpropanoylamino)methyl)(hydroxyphosphinoyl)oxy)hexanoic acid] | 40 |
| CCC(NC(=O)CCc1ccccc1)P(=O)(O)OC(CCCCN)C(=O)O [Example 16, (S)-6-Amino-2-((1-(3-phenylpropanoylamino)propyl)(hydroxyphosphinoyl)oxy)hexanoic acid] | > 90 |
| CC(C)C(NC(=O)CCCc1ccccc1)P(=O)(O)OC(CCCCN)C(=O)O [Example 24, (S)-6-Amino-2-(2-methyl-1-(4-phenylbutanoylamino)propyl(hydroxyphosphinoyl)oxy)hexanoic acid] | > 90 |
| NCCCCC(OP(=O)(O)C(NC(=O)CCc1ccccc1)C1CCOCC1)C(=O)O [Example 35, (S)-6-Amino-2-((1-(3-phenylpropanoylamino)-1-(tetrahydropyran-4-yl)methyl)(hydroxyphosphinoyl)oxy)bexanoic acid] | > 90 |
| NCCCC[C@H](OP(=O)(O)C1(NC(=O)CCc2ccccc2)CCCCC1)C(=O)O [Example 14, (S)-6-Amino-2-((1-(3-phenylpropanoylamino)cyclohexyl)(hydroxyphosphinoyl)oxy)hexanoic acid] | > 90 |
| NCCCCC(OP(=O)(O)C(NC(=O)CCc1ccccc1)C1CC1)C(=O)O [Example 6, (S)-6-Amino-2-((1-cyclopropyl(3-phenylpropanoylamino)methyl)(hydroxyphosphinoyl)oxy)hexanoic acid] | > 90 |
| NCCCC[C@H](OP(=O)(O)C(NC(=O)CCc1ccccc1)C1CCC1)C(=O)O (stereo partly drawn) [Example 10, (S)-6-Amino-2-((1-cyclobutyl-1-(3-phenylpropanoylamino)methyl)(hydroxyphosphinoyl)oxy)hexanoic acid] | > 90 |
| NCCCC[C@H](OP(=O)(O)C1(NC(=O)CCc2ccccc2)CCCC1)C(=O)O [Example 20, (S)-6-Amino-2-((1-(3-phenylpropanoylamino)cyclopentyl)(hydroxyphosphinoyl)oxy)hexanoic acid] | > 90 |
| NCCCCC(OP(=O)(O)C(CCCN)NC(=O)CCc1ccccc1)C(=O)O [Example 40, (S)-6-Amino-2-((4-amino-1-(3-phenylpropanoylamino)butyl)(hydroxyphosphinoyl)oxy)hexanoic acid] | 30 |
| C[C@H](NC(=O)OCc1ccccc1)P(=O)(O)O[C@@H](CCCCN)C(=O)O [Example 1, (S)-6-Amino-2-(((R)-1-(benzyloxycarbonylamino)ethyl)(hydroxyphosphinoyl)oxy)hexanoic acid] | 30 |
| NCCCCC(OP(=O)(O)C(CO)NC(=O)CCc1ccccc1)C(=O)O [Example 37, (S)-6-Amino-2-((2-hydroxy-1-(3-phenylpropanoylamino)ethyl)(hydroxyphosphinoyl)oxy)hexanoic acid] | 70 |

system: ICR male mice; experiment: Toxicity test by single administration; type: in vivo; conditions: single intravenous administration in saline, dose of 1 g/kg, ICR male mice of 5 weeks old
Experimental: Toxicity Test Example by Single Administration
The compound of Example 19 of the present invention was dissolved in saline intravenously administered to 6 individuals of ICR male mice of 5 weeks old.

| SMILES | death of the mice or severe toxicity |
| --- | --- |
| CC(C)C(NC(=O)CCc1ccccc1)P(=O)(O)OC(CCCCN)C(=O)O [Example 19, (S)-6-Amino-2-((2-methyl-(1R)-(3-phenylpropanoylamino)propyl)(hydroxyphosphinoyl)oxy)hexanoic acid] | no death of the mice or severe toxicity was observed |
